According to EP4796540A2, “N-SULFONAMIDE NITROGEN-CONTAINING FUSED HETEROCYCLIC COMPOUND, AND APPLICATION THEREOF” (priority 2023, dated 2025):
“And” between values parts separate entries of the source, which are not always exact repeats. Equal values may be shown once.

Legend:
[1] = In vivo pharmacokinetic study in mice; conditions: mouse, plasma; CD-1 mice (male), IV 1 mg/kg; read-out: Clint
Method: 1. Experimental purpose: To test the pharmacokinetics of compounds in CD-1 mice. 2. Experimental instrument and materials: Animals: CD-1 mice (male) Instrument: Intravenous injection: 40% HP-β-CD in water; intragastric administration: 0.2% HPC + 0.5% Tween80 in water. 6 male mice. Fasting treatment was performed in the evening before the administration, with free access to water. During the experiment, the mice were allowed to eat and drink freely, and administered by intravenous injection or gavage. After administration, the animal status was observed, and abnormal behaviors were recorded. Blood was collected from the orbit at 0.0833, 0.25, 1, 2, 4, 8, and 24 hours after intravenous injection, and at 0.25, 0.5, 1, 2, 4, 6, 8, and 24 hours after intragastric administration. 20 µL of plasma sample was taken and added with 250 µL of acetonitrile (containing dexamethasone as an internal standard) to precipitate proteins. The mixture was centrifuged at 4°C and 4000 rpm for 20 minutes, and 180 µL of the supernatant was taken and mixed with 180 µL of an aqueous solution containing 0.1% formic acid in a 96-well plate. […] Unknown samples were calculated by the standard curve. Pharmacokinetic parameters were calculated by the non-compartmental analysis model of WinNonlin 8.2 software and were presented in a report, including Clint, Cmax, AUC, etc. […]

[2] = test system: human gastric cancer NUGC-3 xenograft; assay: In vivo efficacy study in human gastric cancer NUGC-3 xenograft mouse model; set-up: species or system NUNU mice; conditions: mice; for Tumor volume (mm^3) (at 19 days): Mean ± SEM
Method: 1. Experimental purpose: To test the in vivo anti-tumor activity of compounds in the subcutaneous human gastric cancer NUGC-3 xenograft model in female NUNU mice. 2. Experimental materials: Animals: 6 to 8 weeks old female NUNU mice; Reagents:
Cpd-A vehicle: 0.2% HPC, 0.5% Tween80 in water (w/v/v); Cpd-2 vehicle: 5% DMSO/10% Solutol HS 15/85% pH 4.65 ± 0.10 acetate buffer.
Cell culture: NUGC-3 cells were cultured in RPMI-1640 medium containing 10% FBS.
Molding and grouping: NUGC-3 cells in the exponential growth phase (5 × 10^6) were harvested, resuspended in 0.2 mL of PBS and Matrigel (1:1), and then inoculated subcutaneously into the right flank of NUNU mice to establish a subcutaneous xenograft model. Mice were observed daily for healthy status and tumor growth after cell inoculation. On the 5th day after inoculation, 36 animals were selected, grouped, and the tumor volume of the animals in the group was approximately 150.0 mm^3. The study was divided into 6 groups, with 6 mice in each group, and the administration was performed on the same day (see Table 10).
4. Experimental design: Table 10 is the grouping and administration information for the efficacy experiment. Mice in the G1 group were orally administered vehicle control (5% DMSO/10% Solutol HS 15/85% pH 4.65 ± 0.10 acetate buffer) once a day for a total of 19 days. Mice in the G2 group were orally administered Cpd-A once a day at a dose of 50 mg/kg for a total of 19 days. Mice in the G3 group were orally administered Cpd-A once a day at a dose of 100 mg/kg for a total of 19 days. Mice in the G4 group were orally administered Cpd-2 once a day at a dose of 25 mg/kg for a total of 19 days. Mice in the G5 group were orally administered Cpd-2 once a day at a dose of 50 mg/kg for a total of 19 days. Mice in the G6 group were orally administered Cpd-2 once a day at a dose of 100 mg/kg for a total of 19 days. Table 10. In vivo efficacy study design of NUGC-3 xenograft mouse model
Experimental observation: The health status and mortality of the animals were monitored daily. Routine checks included observing the effect of tumor growth and drug treatment on animals' normal behavior such as mobility, food and water consumption, body weight gain/loss, eye/hair matting and any other abnormal effect. The number of deaths and side effects of the animals in the group were recorded based on the number of the animals in each group. Clinical symptoms observed during the trial were recorded in the raw data. Tumor volume calculation formula: Tumor volume (mm^3) = 0.5 × (tumor long diameter × tumor short diameter^2). During the research process, the entire administration process as well as tumor and body weight measurements were conducted in a Laminar Flow Cabinet.
Statistical analysis: Tumor volume and animal body weight results are expressed in Mean ± SEM. Tumor volumes between different groups were statistically compared and analyzed. All statistical analyses were completed in GraphPad Prism 8.0. The one-way ANOVA method was used to compare whether there was a significant difference in tumor volume or tumor weight between groups, where p ≥ 0.05 was considered as having no significant difference, p < 0.05 was considered as having a significant difference, and p < 0.001 was considered as having an extremely significant difference.

[2H]C([2H])([2H])Oc1nc(C(=O)NS(C)(=O)=O)ccc1NCC#Cc1cc2c(N[C@@H]3CCN(C)C[C@@H]3F)cccn2c1CC(F)(F)F [Cpd-2, 5-((3-(8-(((3S,4R)-3-Fluoro-1-methylpiperidin-4-yl)amino)-3-(2,2,2-trifluoroethyl)indolizin-2-yl)prop-2-yn-1-yl)amino)-6-(methoxy-d3)-N-(methylsulfonyl)picolinamide]
clearance [1]: 15 mL/min/kg
TGI (%) (at 19 days) ([2]; 25 mg/kg PO QD*19 Days): 65.1%
Tumor volume (mm^3) (at 19 days) ([2]; 25 mg/kg PO QD*19 Days): 615.1 mm^3 and 615.1 ± 157.6 mm^3
TGI (%) (at 19 days) ([2]; 50 mg/kg PO QD*19 Days): 96.1%
Tumor volume (mm^3) (at 19 days) ([2]; 50 mg/kg PO QD*19 Days): 202.2 mm^3 and 202.2 ± 57.9 mm^3
TGI (%) (at 19 days) ([2]; 100 mg/kg PO QD*19 Days): 103.6%
Tumor volume (mm^3) (at 19 days) ([2]; 100 mg/kg PO QD*19 Days): 102.5 mm^3 and 102.5 ± 42.1 mm^3
